# Measured values reported in ChEMBL document CHEMBL5726941, “Naphthyridine compounds, medical combinations and use thereof” (2018).
# Biological target: Hepatocyte growth factor receptor (Homo sapiens, UniProt P08581)
# Assay: Inhibition Assay: A study on inhibition of protein kinases activity at in vitro biochemical levelMaterial and method: kinases such as c-Met, VEGFR-2, Axl and RET, obtained from Invitrogen; HTRF KinEASE; TK kit (Cisbio Company); 384-well plate (Greiner Company); ATP (Sigma Company), MgCl2 (Sigma Company); PHERAstar FS multifunctional plate reader (BMG Company); conventional centrifuge (StaiteXiangyi Company); incubator (Binder Company). […] Meanwhile, 4 μL 1.33× enzymatic buffer is added as the negative control. 2 μL compound working solution is added into each well, and 2 μL 8% DMSO in water is added as zero compound level control (i.e., positive control). At 25° C. (or 30 C), incubate for 5-10 min; add 2 μL substrate working solution into each well to initiate the enzymatic reaction. Allow to react while shaking at 25° C. (or 30° C.) for 15-60 min.
# Chain of Hepatocyte growth factor receptor (P08581 whole entry): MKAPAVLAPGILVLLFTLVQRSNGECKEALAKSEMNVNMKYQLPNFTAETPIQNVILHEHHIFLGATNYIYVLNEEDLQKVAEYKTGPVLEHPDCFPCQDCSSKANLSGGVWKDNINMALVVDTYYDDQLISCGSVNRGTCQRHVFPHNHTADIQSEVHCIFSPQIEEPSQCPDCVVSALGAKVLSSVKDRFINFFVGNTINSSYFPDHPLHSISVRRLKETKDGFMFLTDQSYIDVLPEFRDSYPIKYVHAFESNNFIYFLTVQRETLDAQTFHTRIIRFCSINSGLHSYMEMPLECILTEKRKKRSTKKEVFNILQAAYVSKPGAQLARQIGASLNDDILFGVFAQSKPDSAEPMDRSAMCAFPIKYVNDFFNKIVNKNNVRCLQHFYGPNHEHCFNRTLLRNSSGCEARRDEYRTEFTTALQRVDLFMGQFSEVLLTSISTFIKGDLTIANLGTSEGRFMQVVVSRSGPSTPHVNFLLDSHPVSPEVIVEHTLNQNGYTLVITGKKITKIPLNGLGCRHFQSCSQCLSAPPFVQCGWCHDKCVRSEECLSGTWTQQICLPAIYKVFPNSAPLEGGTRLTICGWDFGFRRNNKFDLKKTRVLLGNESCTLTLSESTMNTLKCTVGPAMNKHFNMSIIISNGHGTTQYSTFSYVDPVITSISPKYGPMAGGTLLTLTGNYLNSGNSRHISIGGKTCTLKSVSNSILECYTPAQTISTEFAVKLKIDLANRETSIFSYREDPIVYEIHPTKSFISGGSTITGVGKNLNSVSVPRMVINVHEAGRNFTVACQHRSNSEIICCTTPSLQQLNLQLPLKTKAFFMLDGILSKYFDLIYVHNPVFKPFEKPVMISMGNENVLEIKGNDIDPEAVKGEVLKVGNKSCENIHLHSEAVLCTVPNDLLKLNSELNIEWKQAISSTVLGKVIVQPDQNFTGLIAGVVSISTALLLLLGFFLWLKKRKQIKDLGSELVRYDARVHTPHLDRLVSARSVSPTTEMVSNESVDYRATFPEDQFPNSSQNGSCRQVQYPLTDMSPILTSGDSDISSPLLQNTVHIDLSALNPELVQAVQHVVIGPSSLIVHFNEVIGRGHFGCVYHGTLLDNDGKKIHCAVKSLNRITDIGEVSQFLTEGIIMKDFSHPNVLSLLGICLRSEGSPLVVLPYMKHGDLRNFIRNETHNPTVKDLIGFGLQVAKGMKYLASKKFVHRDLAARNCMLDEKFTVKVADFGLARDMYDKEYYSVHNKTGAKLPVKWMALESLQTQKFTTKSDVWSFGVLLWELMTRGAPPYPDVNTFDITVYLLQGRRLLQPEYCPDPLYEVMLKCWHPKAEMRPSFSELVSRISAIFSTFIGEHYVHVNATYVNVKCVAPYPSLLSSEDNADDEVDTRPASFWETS
structure (smiles),measurement,value
COc1cc2nccc(Oc3ccc(Nc4nccc5[nH]cc(-c6ccc(F)cc6)c(=O)c45)cc3F)c2cc1OC,IC50,143 nM
